Test results taken from US7906507B2, “Oxadiazoanthracene compounds for the treatment of diabetes” (TransTech Pharma, Inc., priority 2008, dated 2011).

Target: T1, cloned human GLP-1 receptor (Homo sapiens, UniProt P43220)
T1 construct: expressed in transfected cells; host or cells: CHO or HEK-293 cells
Assay: Functional cell-based assay: cAMP functional assay
Conditions: for Emax: 0.5 h, percentage relative to maximal GLP-1-induced cAMP accumulation, na = not active in the assay, read-out: % activation
Protocol: Following overnight incubation of cells, media was removed, and compounds (at concentrations ranging from 0.0001 to 100 μM) were added to monolayer cells in Iscove's modified dulbecco's medium (IMDM), 100 μM RO 20-1724 PDE inhibitor, 0.1% BSA, 2% DMSO in a final volume of 100 μL, and incubated for 30 min at 37° C. 95% O2, 5% CO2 in a humidified incubator. cAMP was quantitated using a homogenous time-resolved fluorescence detection system (cAMP dynamic, CIS bio International).

T1 sequence (P43220 24-463): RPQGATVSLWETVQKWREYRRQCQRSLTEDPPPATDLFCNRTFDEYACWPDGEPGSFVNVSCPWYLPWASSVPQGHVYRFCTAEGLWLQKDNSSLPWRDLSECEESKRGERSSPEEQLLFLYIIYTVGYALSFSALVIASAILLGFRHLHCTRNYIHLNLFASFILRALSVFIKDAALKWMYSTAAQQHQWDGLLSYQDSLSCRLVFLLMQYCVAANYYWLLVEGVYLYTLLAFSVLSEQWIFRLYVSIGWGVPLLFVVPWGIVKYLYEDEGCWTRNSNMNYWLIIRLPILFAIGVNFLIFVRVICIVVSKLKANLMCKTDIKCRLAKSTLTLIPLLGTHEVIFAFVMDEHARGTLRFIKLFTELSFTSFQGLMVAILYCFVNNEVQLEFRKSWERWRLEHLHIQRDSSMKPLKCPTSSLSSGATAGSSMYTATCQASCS

SMILES | EC50 | Emax
N#Cc1ccc(-c2ccc(C[C@H](NC(=O)[C@@H]3Cc4cc5c(cc4CN3Cc3ccccc3)OC(c3ccc(OCc4ccc(Cl)c(Cl)c4)cc3)C(=O)N5)C(=O)O)cc2)cc1 (stereo partly drawn) [Example 34, (S)-2-({(S)-6-Benzyl-3-[4-(3,4-dichloro-benzyloxy)-phenyl]-2-oxo-2,3,5,6,7,8-hexahydro-1H-4-oxa-1,6-diaza-anthracene-7-carbonyl}-amino)-3-(4′-cyano-biphenyl-4-yl)-propionic acid] | 160 nM | 31%
N#Cc1ccc(-c2ccc(C[C@H](NC(=O)[C@@H]3Cc4cc5c(cc4CN3CCc3ccccc3)OC(c3ccc(OCc4ccc(Cl)c(Cl)c4)cc3)C(=O)N5)C(=O)O)cc2)cc1 (stereo partly drawn) [Example 35, (S)-3-(4′-Cyano-biphenyl-4-yl)-2-({(S)-3-[4-(3,4-dichloro-benzyloxy)-phenyl]-2-oxo-6-phenethyl-2,3,5,6,7,8-hexahydro-1H-4-oxa-1,6-diaza-anthracene-7-carbonyl}-amino)-propionic acid] | 1200 nM | 16%
N#Cc1ccc(-c2ccc(C[C@H](NC(=O)[C@@H]3Cc4cc5c(cc4CN3C(=O)c3c(F)cc(F)cc3F)OC(c3ccc(OCc4ccc(Cl)c(Cl)c4)cc3)C(=O)N5)C(=O)O)cc2)cc1 (stereo partly drawn) [Example 36, (S)-3-(4′-Cyano-biphenyl-4-yl)-2-{[(S)-3-[4-(3,4-dichloro-benzyloxy)-phenyl]-2-oxo-6-(2,4,6-trifluoro-benzoyl)-2,3,5,6,7,8-hexahydro-1H-4-oxa-1,6-diaza-anthracene-7-carbonyl]-amino}-propionic acid] | 660 nM | 13%
Cc1ccccc1S(=O)(=O)N1Cc2cc3c(cc2C[C@H]1C(=O)N[C@@H](Cc1ccc(-c2ccc(C#N)cc2)cc1)C(=O)O)NC(=O)C(c1ccc(OCc2ccc(Cl)c(Cl)c2)cc1)O3 (stereo partly drawn) [Example 37, (S)-3-(4′-Cyano-biphenyl-4-yl)-2-{[(S)-3-[4-(3,4-dichloro-benzyloxy)-phenyl]-2-oxo-6-(toluene-2-sulfonyl)-2,3,5,6,7,8-hexahydro-1H-4-oxa-1,6-diaza-anthracene-7-carbonyl]-amino}-propionic acid] | 490 nM | 32%
Cc1ccccc1CN1Cc2cc3c(cc2C[C@H]1C(=O)N[C@@H](Cc1ccc(-c2ccc(C#N)cc2)cc1)C(=O)O)NC(=O)C(c1ccc(OCc2ccc(Cl)c(Cl)c2)cc1)O3 (stereo partly drawn) [Example 38, (S)-3-(4′-Cyano-biphenyl-4-yl)-2-{[(S)-3-[4-(3,4-dichloro-benzyloxy)-phenyl]-6-(2-methyl-benzyl)-2-oxo-2,3,5,6,7,8-hexahydro-1H-4-oxa-1,6-diaza-anthracene-7-carbonyl]-amino}-propionic acid] | 710 nM | 32%
N#Cc1ccc(-c2ccc(C[C@H](NC(=O)[C@@H]3Cc4cc5c(cc4CN3Cc3cccs3)OC(c3ccc(OCc4ccc(Cl)c(Cl)c4)cc3)C(=O)N5)C(=O)O)cc2)cc1 (stereo partly drawn) [Example 40] | 1200 nM | 34%
N#Cc1ccc(-c2ccc(C[C@H](NC(=O)[C@@H]3Cc4cc5c(cc4CN3Cc3ccccc3F)OC(c3ccc(OCc4ccc(Cl)c(Cl)c4)cc3)C(=O)N5)C(=O)O)cc2)cc1 (stereo partly drawn) [Example 41, (S)-3-(4′-Cyano-biphenyl-4-yl)-2-{[(S)-3-[4-(3,4-dichloro-benzyloxy)-phenyl]-6-(2-fluoro-benzyl)-2-oxo-2,3,5,6,7,8-hexahydro-1H-4-oxa-1,6-diaza-anthracene-7-carbonyl]-amino}-propionic acid] | 430 nM | 42%
N#Cc1ccc(-c2ccc(C[C@H](NC(=O)[C@@H]3Cc4cc5c(cc4CN3Cc3ccccc3Cl)OC(c3ccc(OCc4ccc(Cl)c(Cl)c4)cc3)C(=O)N5)C(=O)O)cc2)cc1 (stereo partly drawn) [Example 42, (S)-2-({(S)-6-(2-Chloro-benzyl)-3-[4-(3,4-dichloro-benzyloxy)-phenyl]-2-oxo-2,3,5,6,7,8-hexahydro-1H-4-oxa-1,6-diaza-anthracene-7-carbonyl}-amino)-3-(4′-cyano-biphenyl-4-yl)-propionic acid] | 1000 nM | 56%
COc1ccccc1CN1Cc2cc3c(cc2C[C@H]1C(=O)N[C@@H](Cc1ccc(-c2ccc(C#N)cc2)cc1)C(=O)O)NC(=O)C(c1ccc(OCc2ccc(Cl)c(Cl)c2)cc1)O3 (stereo partly drawn) [Example 43, (S)-3-(4′-Cyano-biphenyl-4-yl)-2-{[(S)-3-[4-(3,4-dichloro-benzyloxy)-phenyl]-6-(2-methoxy-benzyl)-2-oxo-2,3,5,6,7,8-hexahydro-1H-4-oxa-1,6-diaza-anthracene-7-carbonyl]-amino}-propionic acid] | 500 nM | 34%
Cc1cccc(CN2Cc3cc4c(cc3C[C@H]2C(=O)N[C@@H](Cc2ccc(-c3ccc(C#N)cc3)cc2)C(=O)O)NC(=O)C(c2ccc(OCc3ccc(Cl)c(Cl)c3)cc2)O4)n1 (stereo partly drawn) [Example 44, (S)-3-(4′-Cyano-biphenyl-4-yl)-2-{[(S)-3-[4-(3,4-dichloro-benzyloxy)-phenyl]-6-(6-methyl-pyridin-2-ylmethyl)-2-oxo-2,3,5,6,7,8-hexahydro-1H-4-oxa-1,6-diaza-anthracene-7-carbonyl]-amino}-propionic acid] | 1000 nM | 25%
N#Cc1ccc(-c2ccc(C[C@H](NC(=O)[C@@H]3Cc4cc5c(cc4CN3Cc3cccc(Br)n3)OC(c3ccc(OCc4ccc(Cl)c(Cl)c4)cc3)C(=O)N5)C(=O)O)cc2)cc1 (stereo partly drawn) [Example 45, (S)-2-({(S)-6-(6-Bromo-pyridin-2-ylmethyl)-3-[4-(3,4-dichloro-benzyloxy)-phenyl]-2-oxo-2,3,5,6,7,8-hexahydro-1H-4-oxa-1,6-diaza-anthracene-7-carbonyl}-amino)-3-(4′-cyano-biphenyl-4-yl)-propionic acid] | 1000 nM | 18%
CSc1nc(CN2Cc3cc4c(cc3C[C@H]2C(=O)N[C@@H](Cc2ccc(-c3ccc(C#N)cc3)cc2)C(=O)O)NC(=O)C(c2ccc(OCc3ccc(Cl)c(Cl)c3)cc2)O4)ccc1C#N (stereo partly drawn) [Example 46, (S)-3-(4′-Cyano-biphenyl-4-yl)-2-({(S)-6-(5-cyano-6-methylsulfanyl-pyridin-2-ylmethyl)-3-[4-(3,4-dichloro-benzyloxy)-phenyl]-2-oxo-2,3,5,6,7,8-hexahydro-1H-4-oxa-1,6-diaza-anthracene-7-carbonyl}-amino)-propionic acid] | 1000 nM | 22%
N#Cc1ccc(-c2ccc(C[C@H](NC(=O)[C@@H]3Cc4cc5c(cc4CN3Cc3ncc[nH]3)OC(c3ccc(OCc4ccc(Cl)c(Cl)c4)cc3)C(=O)N5)C(=O)O)cc2)cc1 (stereo partly drawn) [Example 47, (S)-3-(4′-Cyano-biphenyl-4-yl)-2-{[(S)-3-[4-(3,4-dichloro-benzyloxy)-phenyl]-6-(1H-imidazol-2-ylmethyl)-2-oxo-2,3,5,6,7,8-hexahydro-1H-4-oxa-1,6-diaza-anthracene-7-carbonyl]-amino}-propionic acid] | 1200 nM | 29%
Cn1ccnc1CN1Cc2cc3c(cc2C[C@H]1C(=O)N[C@@H](Cc1ccc(-c2ccc(C#N)cc2)cc1)C(=O)O)NC(=O)C(c1ccc(OCc2ccc(Cl)c(Cl)c2)cc1)O3 (stereo partly drawn) [Example 48, (S)-3-(4′-Cyano-biphenyl-4-yl)-2-{[(S)-3-[4-(3,4-dichloro-benzyloxy)-phenyl]-6-(1-methyl-1H-imidazol-2-ylmethyl)-2-oxo-2,3,5,6,7,8-hexahydro-1H-4-oxa-1,6-diaza-anthracene-7-carbonyl]-amino}-propionic acid] | 895 nM | 64%
N#Cc1ccc(-c2ccc(C[C@H](NC(=O)[C@@H]3Cc4cc5c(cc4CN3Cc3nccs3)OC(c3ccc(OCc4ccc(Cl)c(Cl)c4)cc3)C(=O)N5)C(=O)O)cc2)cc1 (stereo partly drawn) [Example 49, (S)-3-(4′-Cyano-biphenyl-4-yl)-2-({(S)-3-[4-(3,4-dichloro-benzyloxy)-phenyl]-2-oxo-6-thiazol-2-ylmethyl-2,3,5,6,7,8-hexahydro-1H-4-oxa-1,6-diaza-anthracene-7-carbonyl}-amino)-propionic acid] | 557 nM | 57%
N#Cc1ccc(-c2ccc(C[C@H](NC(=O)[C@@H]3Cc4cc5c(cc4CN3C(=O)c3ccccn3)OC(c3ccc(OCc4ccc(Cl)c(Cl)c4)cc3)C(=O)N5)C(=O)O)cc2)cc1 (stereo partly drawn) [Example 50, (S)-3-(4′-Cyano-biphenyl-4-yl)-2-{[(S)-3-[4-(3,4-dichloro-benzyloxy)-phenyl]-2-oxo-6-(pyridine-2-carbonyl)-2,3,5,6,7,8-hexahydro-1H-4-oxa-1,6-diaza-anthracene-7-carbonyl]-amino}-propionic acid] | 1220 nM | 49%
N#Cc1ccc(-c2ccc(C[C@H](NC(=O)[C@@H]3Cc4cc5c(cc4CN3S(=O)(=O)c3ccccc3[N+](=O)[O-])OC(c3ccc(OCc4ccc(Cl)c(Cl)c4)cc3)C(=O)N5)C(=O)O)cc2)cc1 (stereo partly drawn) [Example 51, (S)-3-(4′-Cyano-biphenyl-4-yl)-2-{[(S)-3-[4-(3,4-dichloro-benzyloxy)-phenyl]-6-(2-nitro-benzenesulfonyl)-2-oxo-2,3,5,6,7,8-hexahydro-1H-4-oxa-1,6-diaza-anthracene-7-carbonyl]-amino}-propionic acid] | 820 nM | 30%
N#Cc1ccc(-c2ccc(C[C@H](NC(=O)[C@@H]3Cc4cc5c(cc4CN3S(=O)(=O)c3cccc([N+](=O)[O-])c3)OC(c3ccc(OCc4ccc(Cl)c(Cl)c4)cc3)C(=O)N5)C(=O)O)cc2)cc1 (stereo partly drawn) [Example 52, (S)-3-(4′-Cyano-biphenyl-4-yl)-2-{[(S)-3-[4-(3,4-dichloro-benzyloxy)-phenyl]-6-(3-nitro-benzenesulfonyl)-2-oxo-2,3,5,6,7,8-hexahydro-1H-4-oxa-1,6-diaza-anthracene-7-carbonyl]-amino}-propionic acid] | 810 nM | 33%
